Assay results published in patent publication US20050065140A1, “Serotonine reuptake inhibitor” (priority 2001, published 2005).

Key:
[1] = biological target: T1, [^3H]paroxetine binding (serotonin reuptake), cerebral cortex membrane preparation (Rattus norvegicus, UniProt P31652); assay: Screening test using [^3H]paroxetine binding (Test Example 1); settings: [^3H]paroxetine 0.15 nM, test concentration not given
T1 construct: 790 μl of the cerebral cortex membrane preparation (150 μg/tube in terms of protein); from tissue; host or cells: rat cerebral cortex membrane preparation
Procedure: Screening Test Using [^3H]Paroxetine Binding
The membrane preparation was prepared according to the method^1a) of D'amato et al. In detail, after a male rat was decapitated, the whole brain was immediately removed and the cerebral cortex was dissected therefrom under ice-cooling. A buffer solution (50 mM Tris-HCl (pH=7.4), 120 mM NaCl, 5 mM KCl) was added to the cerebral cortex in an amount of 25 times the wet weight of the cerebral cortex, followed by homogenization in an ice bath by the use of a Teflon-glass homogenizer. The homogenate was centrifuged at 4° C. and 45,000×g for 10 minutes, and the resulting precipitate was dispersed in an ice-cooled buffer solution (50 mM Tris-HCl (pH=7.4), 120 mM NaCl, 5 mM KCl) by the use of Hiscotron™, followed by centrifugation at 4° C. and 45,000×g for 10 minutes. The resulting precipitate was re-suspended and the washing procedure was repeated. The membrane preparation thus obtained was suspended in the same buffer solution as described above, and then subjected to cryopreservation at −80° C.
[^3H]paroxetine binding was measured according to the method^1b) of Habert E et al. In detail, 200 μl of a dilution (final concentration: 0.15 nM) of [^3H]paroxetine with 50 mM Tris-HCl (pH=7.4) buffer containing 120 mM NaCl and 5 mM KCl, 790 μl of the cerebral cortex membrane preparation (150 μg/tube in terms of protein), 10 μl of a solution of a test drug in dimethyl sulfoxide and 1 ml of the above-mentioned buffer solution were mixed to prepare a liquid having a total volume of 2 ml. After this liquid was allowed to react at room temperature for 60 minutes, it was immediately filtered by suction at a low pressure through glass fiber filter. The glass fiber filter was washed 4 times with 4 ml of the same buffer solution as above and then transferred to a glass vial containing 4 ml of ACS-II (Amersham), and the radioactivity remaining on the filter was measured with a liquid scintillation counter.
Non-specific binding of [^3H]paroxetine was defined as the amount of [^3H]paroxetine bound in the presence of 100 μM 5-HT.
(§1) Rate of binding inhibition was calculated by the following equation:
(§2) Rate of binding inhibition (%)=100−100×{[amount of [^3H]paroxetine bound in the presence of test substance]−[amount of [^3H]paroxetine bound in the presence of 100 μM 5-HT]/[amount of [^3H]paroxetine bound in the absence of test substance]−[amount of [^3H]paroxetine bound in the presence of 100 μM 5-HT]}

[2] = biological target: T2, serotonin 1A receptors ([^3H]8-OH-DPAT binding, hippocampus membrane preparation) (Rattus norvegicus, UniProt P19327); assay: [^3H]8-OH-DPAT binding test (Test Example 2); settings: [^3H]8-OH-DPAT 2 nM, test concentration not given
T2 construct: 146 μl of the hippocampus membrane preparation (80 μg/tube in terms of protein); from tissue; host or cells: rat hippocampus membrane preparation
T2 sequence (P19327 1-422): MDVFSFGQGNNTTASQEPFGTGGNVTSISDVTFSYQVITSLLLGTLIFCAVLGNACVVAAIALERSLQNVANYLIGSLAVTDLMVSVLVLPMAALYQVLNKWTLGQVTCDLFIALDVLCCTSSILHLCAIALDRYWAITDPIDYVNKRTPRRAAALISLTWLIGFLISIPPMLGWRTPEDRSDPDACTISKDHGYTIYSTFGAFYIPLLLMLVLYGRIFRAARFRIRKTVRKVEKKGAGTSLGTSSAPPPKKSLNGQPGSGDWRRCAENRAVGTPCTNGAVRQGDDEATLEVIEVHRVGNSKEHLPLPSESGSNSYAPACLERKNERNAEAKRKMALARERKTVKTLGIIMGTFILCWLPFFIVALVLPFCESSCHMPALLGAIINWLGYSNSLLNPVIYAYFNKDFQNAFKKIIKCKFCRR
Procedure: [^3H]8-OH-DPAT Binding Test
The test was carried out according to the method^2 of Hall M. D. et al. After about one week of pre-breeding, a male rat was decapitated and the brain was immediately removed. The hippocampus was dissected from the brain on ice, and 50 mM Tris-HCl (pH=7.4) was added to the hippocampus in an amount of 40 times the wet weight of the hippocampus, followed by homogenization (3 min, 1 stroke/min) in an ice bath by the use of a Teflon-glass homogenizer. Then, the homogenate was centrifuged (4° C.) at 40,000×g for 10 minutes. The resulting precipitate was dispersed in an ice-cooled buffer solution (50 mM Tris-HCl (pH=7.4)) by the use of Hiscotron™, followed by centrifugation (4° C.) at 40,000×g for 10 minutes. Moreover, the resulting precipitate was re-suspended and the washing procedure was repeated once. The precipitate thus obtained was dispersed in an ice-cooled buffer solution (50 mM Tris-HCl (pH=7.4)) by the use of Hiscotron™, and the resulting dispersion was incubated at 37° C. for 1 hour and then centrifuged (4° C.) at 40,000×g for 10 minutes. Furthermore, the resulting precipitate was re-suspended and the washing procedure was repeated once. The membrane preparation thus obtained was suspended in the same buffer solution as described above, and then subjected to cryopreservation at −80° C.
Measurement was carried out by using a liquid for reaction (total volume: 200 μl) obtained by adding 50 μl of [^3H]8-OH-DPAT (final concentration: 2 nM), 4 μl of a solution of a test drug and 146 μl of the hippocampus membrane preparation (80 μg/tube in terms of protein) to a buffer solution containing 50 mM Tris-HCl (pH=7.4) and 4 mM CaCl2. After the liquid for reaction was allowed to react at room temperature for 30 minutes, it was immediately filtered by suction at a low pressure through glass fiber filter. The glass fiber filter was washed twice with 250 μl of a buffer solution and then added to a glass vial containing 4 ml of ACS-II (Amersham), and the radioactivity bound to receptors and remaining on the filter was measured with a liquid scintillation counter. Non-specific binding of [^3H]8-OH-DPAT was defined as the amount of [^3H]8-OH-DPAT bound in the presence of 1 μM 8-OH-DPAT.
as §1
as §2, with “of [^3H]8-OH-DPAT” for “of [^3H]paroxetine”, “of 1” for “of 100”, “μM 8-OH-DPAT]/[amount” for “μM 5-HT]/[amount”, “μM 8-OH-DPAT]}” for “μM 5-HT]}”

T1 sequence (P31652 whole entry): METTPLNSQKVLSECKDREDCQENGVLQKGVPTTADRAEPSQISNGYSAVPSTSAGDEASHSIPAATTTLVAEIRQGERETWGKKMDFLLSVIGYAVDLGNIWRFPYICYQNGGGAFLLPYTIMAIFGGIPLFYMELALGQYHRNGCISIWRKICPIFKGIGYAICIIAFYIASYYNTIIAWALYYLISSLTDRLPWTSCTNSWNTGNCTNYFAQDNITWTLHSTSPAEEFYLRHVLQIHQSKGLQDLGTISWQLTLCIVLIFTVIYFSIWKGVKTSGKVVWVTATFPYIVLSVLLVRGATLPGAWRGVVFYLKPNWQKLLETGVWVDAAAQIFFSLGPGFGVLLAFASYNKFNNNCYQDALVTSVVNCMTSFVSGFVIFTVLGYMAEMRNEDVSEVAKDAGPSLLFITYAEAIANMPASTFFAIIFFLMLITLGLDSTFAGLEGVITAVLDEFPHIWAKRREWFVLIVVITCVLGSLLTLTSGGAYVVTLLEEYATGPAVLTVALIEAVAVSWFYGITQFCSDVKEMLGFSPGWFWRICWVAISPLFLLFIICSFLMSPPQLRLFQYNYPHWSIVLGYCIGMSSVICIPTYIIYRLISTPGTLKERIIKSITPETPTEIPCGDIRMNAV

Row | melting point | Compound | Rate of inhibition of [^3H]paroxetine binding (%) [1] | Rate of inhibition of [^3H]8-OH-DPAT binding (%) [2]
1 | 238 °C | COc1ccc(Br)c(CC2CCN(CCC[C@H]3CC[C@@H](N)CC3)CC2)c1.Cl.Cl | – | –
2 | 290 °C | CCN[C@H]1CC[C@H](CCN2CCC(Cc3cc(OC(C)C)ccc3Br)CC2)CC1.Cl.Cl | – | –
3 | 234 °C | CCN[C@H]1CC[C@@H](CCCN2CCC(Cc3cc(OC)ccc3Br)CC2)CC1.Cl.Cl | – | –
4 | 134 °C | CO[C@H]1CC[C@@H](CCCN2CCC(Cc3cc(OC(C)C)ccc3Br)CC2)CC1.Cl | – | –
5 | 132 °C | COCC(=O)N[C@H]1CC[C@H](CCN2CCC(Cc3cc(OC)ccc3Br)CC2)CC1.Cl | – | –
6 | 242 °C | CCN(CC)[C@H]1CC[C@H](CCN2CCC(Cc3cc(OC)ccc3Br)CC2)CC1.Cl.Cl | – | –
7 | 253 °C | CCN(CC)[C@H]1CC[C@H](CCN2CCC(Cc3cc(OC(C)C)ccc3Br)CC2)CC1.Cl.Cl | – | –
8 | 209 °C | CCN(CC(F)(F)F)[C@H]1CC[C@H](CCN2CCC(Cc3cc(OC)ccc3Br)CC2)CC1.Cl.Cl | – | –
9 | 259 °C | CCN(CCO)[C@H]1CC[C@H](CCN2CCC(Cc3cc(OC)ccc3Br)CC2)CC1.Cl.Cl | – | –
10 | 184 °C | COc1ccc(Br)c(CC2CCN(CCC3(CCO)CCCC3)CC2)c1.Cl | – | –
11 | 209 °C | COc1ccc(Br)c(CC2CCN(CC[C@H]3CC[C@@H](CO)CC3)CC2)c1.Cl | – | –
12 | 228 °C | CCOc1ccc(Br)c(CC2CCN(CC3CCc4ccccc4N3)CC2)c1.Cl.Cl (stereo not drawn) | – | –
13 | 245 °C | Cl.Cl.Fc1ccc(Br)c(CC2CCN(CC3CCc4ccccc4N3)CC2)c1 (stereo not drawn) | – | –
14 | – | COc1ccc(Br)c(CC2CCN(CCC3CCNCC3)CC2)c1.Cl.Cl [Example 1, 4-(2-Bromo-5-methoxybenzyl)-1-(2-(4-piperidinyl)ethyl)piperidine Dihydrochloride] | 81% | 47%
15 | – | CCNC(=O)N1CCC(CCN2CCC(Cc3cc(OC)ccc3Br)CC2)CC1.Cl [Example 32] | 97% | 73%
16 | – | CCN(C(C)=O)[C@H]1CC[C@H](CCN2CCC(Cc3cc(OC(C)C)ccc3Br)CC2)CC1.Cl [Example 52, trans-N-(4-(2-(4-(2-bromo-5-isopropoxy-benzyl)piperidin-1-yl)ethyl)cyclohexyl)-N-ethylacetamide Hydrochloride] | 90% | 60%
17 | – | COc1ccc(Br)c(CC2CCN(CCC3(CCO)CCCCC3)CC2)c1.Cl [Example 60, 2-(1-(2-(4-(2-Bromo-5-methoxybenzyl)-piperidin-1-yl)ethyl)cyclohexyl)ethanol Hydrochloride] | 91% | 98%
18 | – | COc1ccc(N2CC(CN3CCC(Cc4cc(OC)ccc4Br)CC3)OC2=O)cc1.Cl (stereo not drawn) [Example 72, 5-(4-(2-Bromo-5-methoxybenzyl)piperidin-1-yl)methyl-3-(4-methoxyphenyl)oxazolidin-2-one hydrochloride] | 99% | 97%

Row | Compound | melting point | Rate of inhibition of [^3H]paroxetine binding (%) [1] | Rate of inhibition of [^3H]8-OH-DPAT binding (%) [2]
19 | CCN[C@H]1CC[C@@H](CCN2CCC(Cc3cc(OC(C)C)ccc3Br)CC2)CC1.Cl.Cl [Example 41, cis-N-(4-(2-(4-(2-bromo-5-isopropoxybenzyl)-piperidin-1-yl)ethyl)cyclohexyl)-N-ethylamine Dihydrochloride] | 247 °C | 78% | 86%
20 | COc1ccc(Br)c(CC2CCN(CC[C@H]3CC[C@@H](CCO)CC3)CC2)c1.Cl [Example 63] | 172 °C | – | –
